In PMC12888856 (Antimicrobial Agents and Chemotherapy, 2025):
pEC50: −log10 of the molar value. “And” between values parts separate entries of the source, which are not always exact repeats. Equal values may be shown once. Read-outs that look alike come from different tables or passages of the source.

What was measured:
A/Weiss/1943 (H1N1) = assay: microbe, parasite or virus in culture; format: cell-based, Influenza A virus
[1] = system: A/Hong Kong/8/1968 (H3N2); assay: microbe, parasite or virus in culture; format: cell-based, Influenza A virus
[2] = system: IAV H1N1 and H3N2 isolates; assay: microbe, parasite or virus in culture; format: cell-based, Influenza A virus
[3] = system: A/Puerto Rico/8/1934 (H1N1); assay: microbe, parasite or virus in culture; format: cell-based, Influenza A virus
[4] = system: A/Puerto Rico/8/1934 (H1N1); design: species or system BALB/c mice; conditions: mouse, in vivo
A/Malaya/302/1954 (H1N1) = assay: microbe, parasite or virus in culture; format: cell-based, Influenza A virus
[5] = system: A/Puerto Rico/8/1934 (H1N1); design: species or system BALB/c mice; conditions: mouse, in vivo; remark: listed apart in the source
[6] = system: A/New York/18/2009 (H1N1); assay: microbe, parasite or virus in culture; format: cell-based; conditions: Influenza A virus, H1N1, MDCK
[7] = system: A/Michigan/45/2015 (H1N1); assay: microbe, parasite or virus in culture; format: cell-based; conditions: Influenza A virus, H1N1, MDCK
[8] = system: A/cattle/Texas/56283/2024 (H5N1); assay: microbe, parasite or virus in culture; format: cell-based; conditions: Influenza A virus, H5N1, MDCK
[9] = system: A/California/07/2009 (H1N1); assay: microbe, parasite or virus in culture; format: cell-based; conditions: Influenza A virus, H1N1, MDCK
A/Taiwan/1/2017 (H7N9) = assay: microbe, parasite or virus in culture; format: cell-based; conditions: Influenza A virus, H7N9, MDCK
[10] = mouse, in vivo; cited from earlier work
A/Anhui/1/2013 (H7N9) = assay: microbe, parasite or virus in culture; format: cell-based; conditions: Influenza A virus, H7N9, MDCK
[11] = system: A/Brisbane/05/2018 (H1N1); assay: microbe, parasite or virus in culture; format: cell-based; conditions: Influenza A virus, H1N1, MDCK
A/Perth/16/2009 (H3N2) = assay: microbe, parasite or virus in culture; format: cell-based; conditions: Influenza A virus, H3N2, MDCK
[12] = system: HPAI H5N1 and H7N9 isolates; assay: microbe, parasite or virus in culture; format: cell-based; conditions: Influenza A virus, MDCK, read-out: EC50 values, range over isolates
[13] = system: A/California/2/2014 (H3N2); assay: microbe, parasite or virus in culture; format: cell-based; conditions: Influenza A virus, H3N2, MDCK
A/Kansas/14/2017 (H3N2) = assay: microbe, parasite or virus in culture; format: cell-based; conditions: Influenza A virus, H3N2, MDCK
[14] = system: A/Switzerland/971593/2013 (H3N2); assay: microbe, parasite or virus in culture; format: cell-based; conditions: Influenza A virus, H3N2, MDCK
[15] = system: A/Wilson-Smith/1933 (H1N1); assay: microbe, parasite or virus in culture; format: cell-based; conditions: Influenza A virus, H1N1, MDCK
[16] = cited from earlier work
B/Lee/1940 = assay: microbe, parasite or virus in culture; format: cell-based; conditions: Influenza B virus, MDCK
[17] = system: A/Vietnam/1203/2004 (H5N1); assay: microbe, parasite or virus in culture; format: cell-based; conditions: Influenza A virus, H5N1, MDCK
[18] = system: A/Hong Kong/213/2003 (H5N1); assay: microbe, parasite or virus in culture; format: cell-based; conditions: Influenza A virus, H5N1, MDCK
[19] = system: A/Puerto Rico/8/1934 (H1N1); conditions: mouse, in vivo; cited from earlier work
A549 cells = conditions: human
in vitro [20] = conditions: dog
in vitro [21] = conditions: human
HepG2 cells = conditions: human
A/WSN/1933 (H1N1) = assay: microbe, parasite or virus in culture; format: cell-based; conditions: Influenza A virus, MDCK
[22] = system: A/Hong Kong/4801/2014 (H3N2); assay: microbe, parasite or virus in culture; format: cell-based; conditions: Influenza A virus, H3N2, MDCK
B/Florida/78/2015 = assay: microbe, parasite or virus in culture; format: cell-based; conditions: Influenza B virus, MDCK
[23] = system: A/Mexico/4108/2009 (H1N1); assay: microbe, parasite or virus in culture; format: cell-based; conditions: Influenza A virus, H1N1, MDCK
[24] = Balb/c, mouse, in vivo

For CCOC(=O)C1=C[C@@H](OC(CC)CC)[C@H](NC(C)=O)[C@@H](N)C1 [Oseltamivir, oseltamivir, reference compound], the pEC50 (A/Weiss/1943 (H1N1); Influenza A virus, H1N1, MDCK) was 5.98, the Fold shift [1] was 0.09 and the pEC50 ([1]; read-out: EC50) was 7.05. The “shift in EC50 values relative to reference strain” value [2] was less than 2 fold, the pEC50 ([3]; Influenza A virus, H1N1, MDCK) was 6.01 and the “body weight loss leading to euthanasia” value [4] was greater than 25%. The Fold shift (A/Malaya/302/1954 (H1N1)) was 1.19 and the Lung viral load [5] was “comparable to the vehicle control”.

COC[C@@]1(C)COC[C@@H](COc2ccc(-c3cc(C(N)=O)c(O)nc3C(F)(F)F)cc2)O1 [VNT-101] gave a pEC50 (A/Weiss/1943 (H1N1)) of 6.91, a pEC50 (A/Weiss/1943 (H1N1); Influenza A virus, H1N1, MDCK) of 6.91 and an EC90 (A/Weiss/1943 (H1N1); Influenza A virus, H1N1, MDCK) of 210 nM. For the same molecule, the pEC50 [6] was 8.73, the EC90 [6] was 5.12 nM and the pEC50 [7] was 7.75. For the same molecule, the EC90 [7] was 29.4 nM, the pEC50 [8] was 7.19 and the pEC50 [9] was 8.08. It also gave an EC90 [9] of 19.2 nM, a pEC50 ([1]; Influenza A virus, H3N2, MDCK) of less than 4.30 and an EC90 ([1]; Influenza A virus, H3N2, MDCK) greater than 50000 nM. For the same molecule, the pEC50 ([1]; read-out: EC50) was less than 4.30, the pEC50 ([2]; Influenza A virus, MDCK, read-out: mean EC50 values, range over isolates) was 7.74 to 8.70 and the pEC50 (A/Taiwan/1/2017 (H7N9)) was 7.16. The pEC50 [3] was 8.68 and 8.70, the pEC50 ([3]; Influenza A virus, H1N1, MDCK) was 8.68 and the EC90 ([3]; Influenza A virus, H1N1, MDCK) was 3.22 nM. For the same molecule, the pEC50 ([3]; Influenza A virus, H1N1, MDCK, read-out: mean EC50) was 8.30, the “final mean body weight loss” value [4] was 21.1% and the “maximum mean body weight loss” value [4] was 24.4%. For the same molecule, the “maximum mean body weight loss” value ([4]; 30 mg/kg) was 13.6% and 25.1%, the Survival ([4]; po, 100 mg/kg) was 33% and the pEC50 (A/Malaya/302/1954 (H1N1); Influenza A virus, H1N1, MDCK) was less than 4.30. For the same molecule, the EC90 (A/Malaya/302/1954 (H1N1); Influenza A virus, H1N1, MDCK) was greater than 50000 nM, the Cmin [10] was 3.49 ± 1.35 µM and the pEC50 (A/Anhui/1/2013 (H7N9)) was 7.62. It also gave a pEC50 [11] of 8.18, an EC90 [11] of 11.2 nM and a pEC50 (A/Perth/16/2009 (H3N2)) of 8.39. The EC90 (A/Perth/16/2009 (H3N2)) was 5.68 nM, the pEC50 [12] was 7.16 to 7.72 and the pEC50 [13] was 8.66. For the same molecule, the EC90 [13] was 3.41 nM, the pEC50 (A/Kansas/14/2017 (H3N2)) was 8.50 and the EC90 (A/Kansas/14/2017 (H3N2)) was 18 nM. The pEC50 [14] was 8.66, the EC90 [14] was 3.32 nM and the pEC50 [15] was 7.58. The EC90 [15] was 50.6 nM, the “percent plasma protein binding” value [16] was 97.1% and the pEC50 (B/Lee/1940) was less than 4.32. For the same molecule, the EC90 (B/Lee/1940) was greater than 50000 nM, the pEC50 [17] was 7.60 and the pEC50 [18] was 7.72. The “protection from lethality, prophylaxis” value [19] was “protected mice from lethality”, the CC50 (A549 cells) was greater than 100000 nM and the CC50 (in vitro [20]) was greater than 100000 nM. It also gave a CC50 (in vitro [21]; Proliferating condition CC50) of 72800 nM, a CC50 (in vitro [21]; Stationary condition CC50 (mean)) greater than 80400 nM and a CC50 (in vitro [21]; Stationary condition CC50, individual runs) greater than 100000 nM. The CC50 (HepG2 cells) was greater than 100000 nM, the pEC50 (A/WSN/1933 (H1N1)) was 6.94 and the EC90 (A/WSN/1933 (H1N1)) was 191 nM. The pEC50 [22] was 8.59, the EC90 [22] was 3.71 nM and the pEC50 (B/Florida/78/2015) was 4.36. The EC90 (B/Florida/78/2015) was greater than 50000 nM, the pEC50 [23] was 7.84 and the EC90 [23] was 112 nM. For the same molecule, the fAUC [24] was 3.045 µM·h and the fCmin [24] was 0.10 µM.

With O=C1c2c(O)c(=O)ccn2N([C@@H]2c3ccccc3SCc3c2ccc(F)c3F)[C@@H]2COCCN12 [Baloxavir, baloxavir, reference compound] the pEC50 (A/Weiss/1943 (H1N1); Influenza A virus, H1N1, MDCK) was 9.40, the pEC50 ([1]; read-out: EC50) was 9.17 and the pEC50 ([3]; Influenza A virus, H1N1, MDCK) was 9.24.
